The results in this text go back to PMC5056344, “Highly Efficient and Stable Novel NanoBiohybrid Catalyst to Avert 3,4-Dihydroxybenzoic Acid Pollutant in Water” (Scientific Reports, 2016).

The test has as its system T1, protocatechuate 3,4-dioxygenase (3,4-POD).
T1 construct: gene pcaG; 700 kDa; (alpha-beta)n, n = 2-12, non-heme Fe(III); free enzyme
As to the kind of experiment: disappearance of […],4-DHBA at […] nm; non-linear Michaelis-Menten fit. In kind it is biochemical, Pseudomonas sp. Particulars: free enzyme; 50 mM CHES, pH 9.0, 55 °C; 3,4-DHBA 1–200 μM.

Structures are written as SMILES.

For orientation: Km means the concentration of substrate that gives half-maximal velocity. Regarding `O=C(O)c1ccc(O)c(O)c1` [3,4-dihydroxybenzoic acid], the Km came to 37 ± 15 µM.
